Source: PMC10663846 (The Journal of Biological Chemistry, 2023)
Peptide text beside a SMILES is read from it.

What was measured:
[1] = human serum diluted 1:4 in RPMI 1640, 37 °C, peptide 10 μg/ml from DMSO stock, 48 h time course, ESI-MS peak area normalized to Angiotensin I
Description: Human serum was diluted 1:4 in Gibco RPMI 1640 media (ThermoFisher Scientific, Cat. No. 11–875–093) and incubated at 37 °C for 15 min before peptide stock was added at final concentration of 10 μg/ml. Time points were taken at room temperature and mixed with 200 μl of 3% TFA before a 15 min incubation on ice. Samples were centrifuged at 16,000g for 2.5 min and the supernatant was prepared for C18 desalting by adding 100 μl of 20% acetonitrile, 2% TFA before storage at −20 °C overnight. Samples were processed through Pierce C18 spin columns (ThermoFisher Scientific, Cat. No. 89870) according to the manufacturer’s instructions. Desalted samples were dried under nitrogen and stored at −20 °C until mass spectrometry analysis.
For MALDI-TOF-MS analysis, samples were reconstituted in 200 μl of 0.1% formic acid. Samples were diluted 1:10 in a MALDI matrix containing a 50 fmol/μl solution of Angiotensin I as a control, spotted onto the plate at a volume of 1 μl, and run on an Axima Performance MALDI TOF/TOF mass spectrometer (Shimadzu Scientific Instruments). Data was visualized with Axima Launchpad 2.8 software (Shimadzu Scientific Instruments). For ESI-MS analysis, samples were run on an Orbitrap Exploris 480 (ThermoFisher Scientific). […] ThermoFisher’s Xcalibur 4.0 Data System was used for peptide quantification via peak area (normalized based on Angiotensin I abundance).

[2] = system: OVCAR8 cells and human PBMCs co-culture, TNFα secretion; test: OVCAR8:PBMC co-culture, secreted TNFα (ELISA); assay type: cell-based; settings: 1:10 OVCAR8:PBMC, 24 h, MN1.4 500, 100 or 10 μM, rPD-L1 1 μM
Description: The concentration of PBMCs required for a 1:10 OVCAR8:PBMC ratio was calculated from the OVCAR8 concentration.

## CC[C@H](C)[C@@H]1NC(=O)[C@H](CCSC)NC(=O)[C@H](C)NC(=O)[C@H](CCCNC(=N)N)NC(=O)[C@@H](NC(C)=O)CSSC[C@@H](C(N)=O)NC(=O)[C@H]([C@@H](C)O)NC(=O)[C@H]([C@@H](C)CC)NC(=O)[C@H](CCCNC(=N)N)NC(=O)[C@H](CCCCN)NC(=O)[C@H](Cc2ccc(O)cc2)NC(=O)[C@H](CC(=O)O)NC(=O)[C@H](C)NC(=O)CNC(=O)CNC(=O)[C@H](Cc2ccc(O)cc2)NC(=O)[C@H](CO)NC1=O [MN1.2] (HELM PEPTIDE1{[ac].C.R.A.M.I.S.Y.G.G.A.D.Y.K.R.I.T.C.[am]}$PEPTIDE1,PEPTIDE1,2:R3-18:R3$$$V2.0)
[1]
  serum stability, degradation after 48 h: detected at very low levels

## CC[C@H](C)[C@H](NC(=O)[C@H](CCSC)NC(=O)[C@H](CS)NC(=O)[C@H](CCCNC(=N)N)NC(=O)[C@H](Cc1ccc(O)cc1)NC(C)=O)C(=O)N[C@@H](CO)C(=O)N[C@@H](Cc1ccc(O)cc1)C(=O)NCC(=O)NCC(=O)N[C@@H](C)C(=O)N[C@@H](CC(=O)O)C(=O)N[C@@H](Cc1ccc(O)cc1)C(=O)N[C@@H](CCCCN)C(=O)N[C@@H](CCCNC(=N)N)C(=O)N[C@H](C(=O)N[C@H](C(=O)N[C@H](C(N)=O)C(C)C)[C@@H](C)O)[C@@H](C)CC
other
  serum modification products (MALDI-TOF-MS): 119 Da

## Ac-YRCMISYGGADEKRITV-NH2 [MN_Null]
[2]
  TNFα levels compared to untreated co-culture control: less immunosuppressive activity as compared to MN1.4
